Data reported in patent publication US20070249620A1, “Urea Derivative” (priority 2004, published 2007).

Compound	melting point
COc1ccc(C)cc1NC(=O)Nc1ccc(N2CCN(C(=O)C3CCCCC3)CC2)cc1 [Example 48, 1-[4-(4-cyclohexanecarbonyl-piperazin-1-yl)-phenyl]-3-(2-methoxy-5-methyl-phenyl)-urea]	222 °C
COc1ccc(C)cc1NC(=O)Nc1ccc(N2CCN(C(=O)Nc3ccccc3)CC2)cc1 [Example 49, 4-{4-[3-(2-methoxy-5-methyl-phenyl)-ureido]-phenyl}-piperazine-1-carboxylic acid phenylamide]	221 °C
COc1ccc(C)cc1NC(=O)Nc1ccc(N2CCN(C(=O)NCc3ccccc3)CC2)cc1 [Example 50, 4-{4-[3-(2-methoxy-5-methyl-phenyl)-ureido]-phenyl}-piperazine-1-carboxylic acid benzylamide]	224 °C
COc1ccc(C)cc1NC(=O)Nc1ccc(N2CCN(C(=O)Nc3ccccc3F)CC2)cc1 [Example 52, 4-{4-[3-(2-methoxy-5-methyl-phenyl)-ureido]-phenyl}-piperazine-1-carboxylic acid (2-fluoro-phenyl)-amide]	200 to 201 °C
COc1ccc(C)cc1NC(=O)Nc1ccc(N2CCN(C(=O)Nc3c(F)cccc3F)CC2)cc1 [Example 55, 4-{4-[3-(2-methoxy-5-methyl-phenyl)-ureido]-phenyl}-piperazine-1-carboxylic acid (2,6-difluoro-phenyl)-amide]	224 °C
COc1ccc(C)cc1NC(=O)Nc1ccc(N2CCN(C(=O)Nc3ccccc3Cl)CC2)cc1 [Example 56, 4-{4-[3-(2-methoxy-5-methyl-phenyl)-ureido]-phenyl}-piperazine-1-carboxylic acid (2-chloro-phenyl)-amide]	> 240 °C (dec.)
COc1ccc(Cl)cc1NC(=O)Nc1ccc(N2CCN(C(=O)Nc3ccccc3F)CC2)cc1 [Example 67, 4-{4-[3-(5-chloro-2-methoxy-phenyl)-ureido]-phenyl}-piperazine-1-carboxylic acid (2-fluoro-phenyl)-amide]	218 to 220 °C
COc1ccc(Cl)cc1NC(=O)Nc1ccc(N2CCN(C(=O)Nc3ccccc3C(F)(F)F)CC2)cc1 [Example 68, 4-{4-[3-(5-chloro-2-methoxy-phenyl)-ureido]-phenyl}-piperazine-1-carboxylic acid (2-trifluoromethyl-phenyl)-amide]	213 to 214 °C
COc1ccc(Cl)cc1NC(=O)Nc1ccc(N2CCN(C(=O)Nc3ccccc3C)CC2)cc1 [Example 69, 4-{4-[3-(5-chloro-2-methoxy-phenyl)-ureido]-phenyl}-piperazine-1-carboxylic acid o-tolylamide]	230 to 232 °C
COc1ccc(C)cc1NC(=O)Nc1ccc(N2CCN(C(=O)Nc3ccc(F)cc3F)CC2)cc1 [Example 72, 4-{4-[3-(2-methoxy-5-methyl-phenyl)-ureido]-phenyl)-piperazine-1-carboxylic acid (2,4-difluoro-phenyl)-amide]	201 to 203 °C
COc1ccc(C)cc1NC(=O)Nc1ccc(N2CCN(C(=O)Nc3cccc(Cl)c3C)CC2)cc1 [Example 136, 4-{4-[3-(2-methoxy-5-methyl-phenyl)-ureido]-phenyl}-piperazine-1-carboxylic acid (3-chloro-2-methyl-phenyl)-amide]	228 to 230 °C
COc1ccc(Cl)cc1NC(=O)Nc1ccc(N2CCN(C(=O)Nc3c(C)cccc3OC)CC2)cc1 [Example 182, 4-{4-[3-(5-chloro-2-methoxy-phenyl)-ureido]-phenyl}-piperazine-1-carboxylic acid (2-methoxy-6-methyl-phenyl)-amide]	165 to 167 °C
COc1ccc(C)cc1NC(=O)Nc1ccc(N2CCN(C(=O)C3CC4CCC3C4)CC2)cc1 (stereo not shown) [Example 189, 1-{4-[4-(bicyclo[2.2.1]heptane-2-carbonyl)-piperazin-1-yl]-phenyl}-3-(2-methoxy-5-methyl-phenyl)-urea]	126 to 128 °C
COc1ccc(C)cc1NC(=O)Nc1ccc(N2CCN(C(=O)C3CCCCC3C)CC2)cc1 (stereo not shown) [Example 190, 1-(2-methoxy-5-methyl-phenyl)-3-{4-[4-(2-methyl-cyclohexanecarbonyl)-piperazin-1-yl]-phenyl}-urea]	208 to 209 °C
COc1ccc(C)cc1NC(=O)Nc1ccc(N2CCN(Cc3ccccc3)CC2)cc1 [Example 191, 1-[4-(4-benzyl-piperazin-1-yl)-phenyl]-3-(2-methoxy-5-methyl-phenyl)-urea]	184 to 186 °C
COc1ccc(C)cc1NC(=O)Nc1ccc(N2CCN(c3ncccn3)CC2)cc1 [Example 193, 1-(2-methoxy-5-methyl-phenyl)-3-[4-(4-pyrimidin-2-yl-piperazin-1-yl)-phenyl]-urea]	220 to 221 °C
COc1ccc(C)cc1NC(=O)Nc1ccc(N2CCC(C(=O)Nc3c(C)cccc3Cl)CC2)cc1 [Example 196, 1-{4-[3-(2-methoxy-5-methyl-phenyl)-ureido]-phenyl}-piperidine-4-carboxylic acid (2-chloro-6-methyl-phenyl)-amide]	> 250 °C (dec.)
COc1ccc(C)cc1NC(=O)Nc1ccc2c(c1)C=CN(C(=O)Nc1c(C)cccc1Cl)C2 [Example 202, 6-[3-(2-methoxy-5-methyl-phenyl)-ureido]-3,4-dihydrido-1H-isoquinoline-2-carboxylic acid (2-chloro-6-methyl-phenyl)-amide]	216 to 218 °C
COc1ccc(C)cc1NC(=O)Nc1ccc(N2CCC(C(=O)c3ccccc3)CC2)nc1 [Example 205, 1-(4-benzoyl-3,4,5,6-tetrahydro-2H-[1,2′]bipyridinyl-5′-yl)-3-(2-methoxy-5-methyl-phenyl)-urea]	193 to 194 °C

The remaining lines, values ahead:

melting point	Compound
200 to 202 °C	COc1ccc(F)cc1NC(=O)Nc1ccc(N2CCN(C(=O)OC(C)(C)C)CC2)cc1 [Example 44, 4-{4-[3-(5-fluoro-2-methoxy-phenyl)-ureido]-phenyl}-piperazine-1-carboxylic acid tert-butyl ester]
200 to 201 °C	COc1ccc(F)cc1NC(=O)Nc1ccc(N2CCN(C(=O)OC(C)(C)C)CC2)nc1 [Example 45, 4-{5-[3-(5-fluoro-2-methoxy-phenyl)-ureido]-pyridin-2-yl}-piperazine-1-carboxylic acid tert-butyl ester]
179 °C	COc1ccc(C)cc1NC(=O)Nc1ccc(N2CCN(C(=O)Oc3ccccc3)CC2)cc1 [Example 47, 4-{4-[3-(2-methoxy-5-methyl-phenyl)-ureido]-phenyl}-piperazine-1-carboxylic acid phenyl ester]
136 °C	COc1ccc(C)cc1NC(=O)Nc1ccc(N2CCN(C(N)=O)CC2)cc1 [Example 51, 4-{4-[3-(2-methoxy-5-methyl-phenyl)-ureido]-phenyl}-piperazine-1-carboxylic acid amide]
207 to 209 °C	CCc1cccc(C)c1NC(=O)N1CCN(c2ccc(NC(=O)Nc3cc(C)ccc3OC)cc2)CC1 [Example 63, 4-{4-[3-(2-methoxy-5-methyl-phenyl)-ureido]-phenyl}-piperazine-1-carboxylic acid (2-ethyl-6-methyl-phenyl)-amide]
191 to 193 °C	COc1ccc(C)cc1NC(=O)Nc1ccc(N2CCN(C(=O)Nc3ccc(Br)cc3C)CC2)cc1 [Example 70, 4-{4-[3-(2-methoxy-5-methyl-phenyl)-ureido]-phenyl}-piperazine-1-carboxylic acid (4-bromo-2-methyl-phenyl)-amide]
196 to 199 °C	COc1ccc(C)cc1NC(=O)Nc1ccc(N2CCN(C(=O)Nc3ccc(C)cc3C)CC2)cc1 [Example 71, 4-{4-[3-(2-methoxy-5-methyl-phenyl)-ureido]-phenyl}-piperazine-1-carboxylic acid (2,4-dimethyl-phenyl)-amide]
199 to 201 °C	COc1ccc(C)cc1NC(=O)Nc1ccc(N2CCN(C(=O)Nc3ccc(Cl)cc3C)CC2)cc1 [Example 74, 4-{4-[3-(2-methoxy-5-methyl-phenyl)-ureido]-phenyl}-piperazine-1-carboxylic acid (4-chloro-2-methyl-phenyl)-amide]
217 to 219 °C	COc1ccc(C)cc1NC(=O)Nc1ccc(N2CCN(C(=O)Nc3cccc(C)c3C)CC2)cc1 [Example 108, 4-{4-[3-(2-methoxy-5-methyl-phenyl)-ureido]-phenyl}-piperazine-1-carboxylic acid (2,3-dimethyl-phenyl)-amide]
169 to 171 °C	COc1ccc(C)cc1NC(=O)Nc1ccc(N2CCN(C(=O)OC(C)(C)C)CC2)cc1C [Example 194, 4-{4-[3-(2-methoxy-5-methyl-phenyl)-ureido]-3-methyl-phenyl}-piperazine-1-carboxylic acid tert-butyl ester]
103 to 105 °C	COc1ccc(C)cc1NC(=O)Nc1ccc(N2CCN(C(=O)OC(C)(C)C)CC2)c(C)c1 [Example 195, 4-{4-[3-(2-methoxy-5-methyl-phenyl)-ureido]-2-methyl-phenyl}-piperazine-1-carboxylic acid tert-butyl ester]
199 to 200 °C	COc1ccc(C)cc1NC(=O)Nc1ccc(N2CCN(C(=O)C(O)c3ncccc3C)CC2)cc1 (stereo not shown) [Example 427, 1-(4-{4-[2-hydroxy-2-(3-methyl-pyridin-2-yl)-acetyl]-piperazin-1-yl}-phenyl)-3-(2-methoxy-5-methyl-phenyl)-urea]
